{
  "source": "patent US20260200965A1",
  "about": "“NOVEL COMPOUND DERIVED FROM LORANTHUS TANAKAE AND ANTICANCER USE THEREOF” (KOREA INSTITUTE OF ORIENTAL MEDICINE, priority 2022, published 2026)",
  "key": {"[1]": {"tested_on": "NHDF (normal human dermal fibroblast) cells", "test": "Toxicity test in normal cells (WST-8)", "type": "cell-based", "experimental": "NHDF (normal human dermal fibroblast; ATCC, USA) cells were seeded at about 5,000 cells per well in a 96-well plate and stabilized for 24 hours, and then treated with Lotanoside B isolated in Example 2 at various concentrations (0, 6.25, 12.5, 25, or 50 μM). As a control group, 5-FU (anticancer drug) and kaempferol were treated at various concentrations (5-FU: 0, 1.25, 2.5, 5 or 10 μM; kaempferol: 0, 5, 10, 20 or 40 μM). After culturing in a CO2 incubator for 48 hours, WST-8 ((2-(2-methoxy-4-nitrophenyl)-3-(4-nitrophenyl)-5-(2,4-disulfophenyl)-2H-tetrazolium, monosodium salt) reagent was treated, and after culturing for 2 hours, the optical density (OD) was measured at a wavelength of 450 nm by using a microplate reader."}, "[2]": {"tested_on": "mouse skin epithelial cell JB6", "test": "EGF-induced cell transformation colony growth inhibition (soft agar)", "type": "cell-based", "conditions": "EGF 10 ng/ml, JB6 colonies, about 2 weeks", "experimental": "(§1) The carcinogenicity inhibitory effect of the extract of Loranthus tanakae Franch. & Sav was determined in a carcinogenic model in which the mouse skin epithelial cell JB6 (ATCC, USA) was treated with EGF, which is a growth factor that increases cancer cell occurrence, and TPA, which is a tumor-promoting factor, to induce malignant transformation.\n(§2) Specifically, agar mix (0.5%) including BME, FBS, glutamine, gentamicin, PBS and 1.25% agar, EGF (10 ng/ml) or TPA (10 ng/ml) and the 70% ethanol extract of Loranthus tanakae Franch. & Sav prepared in Example 1-1 were mixed, dispensed into 6-well plates at 3 mL per well, and solidified (bottom agar). Mouse skin epithelial cells JB6 (ATCC, USA) were detached by trypsin treatment, washed with 1×PBS, and resuspended in 10% BME to determine the cell number. 8,000 cells were prepared per well, and agar mix (0.3%), EGF or TPA and the 70% ethanol extract of Loranthus tanakae Franch. & Sav prepared in Example 1-1 were mixed, dispensed into 1 mL per well, and solidified (upper agar). After culturing in a CO2 incubator for about 2 weeks, colonies were photographed under a microscope, and the number of colonies was counted by using Image-Pro Plus software (v.6.0) program (Media Cybernetics, Silver Spring, MD, USA)."}, "[3]": {"tested_on": "mouse skin epithelial cell JB6", "test": "TPA-induced cell transformation colony growth inhibition (soft agar)", "type": "cell-based", "conditions": "TPA 10 ng/ml, JB6 colonies, about 2 weeks", "experimental": "as §1, §2"}, "[4]": {"tested_on": "SKMEL-5 melanoma cancer cells", "test": "Cancer cell growth inhibition (WST-8 assay)", "type": "cell-based", "experimental": "SKMEL-5 melanoma cancer cells (ATCC, USA) were dispensed into a 96-well plate at 1,000 cells per well and stabilized for 24 hours, and then treated with Lotanoside B at different concentrations (0, 6.25, 12.5, 25 or 50 μM). As a control group, 5-FU (anticancer drug) and kaempferol were treated at different concentrations, respectively (5-FU: 0, 1.25, 2.5, 5 or 10 μM; kaempferol: 0, 5, 10, 20 or 40 μM). Afterwards, the cells were cultured in a CO2 incubator for 72 hours, and then treated with WST-8 ((2-(2-methoxy-4-nitrophenyl)-3-(4-nitrophenyl)-5-(2,4-disulfophenyl)-2H-tetrazolium, monosodium salt) reagent, and after culturing for about 2 hours, the optical density (OD) was measured at a wavelength of 450 nm by using a microplate reader."}, "[5]": {"tested_on": "DMBA/TPA-induced skin cancer", "type": "in vivo, ICR mice", "experimental": "Female ICR mice (5 weeks old, 20~25 g) were purchased as experimental animals from Samtaco Co., Ltd. (Osan, Korea), and were provided with water and food freely in a cage equipped with a constant temperature and humidity device. After a one-week adaptation period, the hair on the back of the mice was removed, and they were divided into six groups as shown in Table 1 and raised for 20 weeks.\nWhen DMBA (7,12-Dimethylbenz[a]anthracene), which induces carcinogenesis, is treated to the depilated area and TPA (12-Otetradecanoylphorbol-13-acetate, promoter) is continuously applied, skin inflammation and skin cancer are induced. […] TPA, Lotanoside B and 5-FU were diluted in acetone and topically treated to the back area twice a week, and the number and size of the tumors formed and the weight of the mice were measured."}, "[6]": {"conditions": "0.1 and 1 μmole topical twice a week, 20 weeks, vs DMBA/TPA group, reduction greater at 1 μmole"}},
  "note": "“And” between values parts separate entries of the source, which are not always exact repeats. Identical values can stand only once.",
  "data": [
    {"compound": "O=c1[nH]cc(F)c(=O)[nH]1", "note": "[5-FU, fluorouracil]", "values": [
      {"measurement": "concentration at which toxicity begins to show", "setting": "[1]; human, 48 h", "value": 10, "unit": "µM"}
    ]},
    {"compound": "COc1cc(O)c2c(=O)c(OC3OC(C)C(O)C(O)C3O)c(-c3ccc(OC4OC(COC(=O)/C=C/c5ccccc5)C(O)C(O)C4O)c(O)c3)oc2c1", "note": "(stereo not drawn) [Lotanoside B, rhamnetin-3-O-rhamnoside-4′-O-(6″-O-cinnamoyl)-glucoside]", "values": [
      {"measurement": "inhibition at 50 µM", "setting": "[2]; Mus musculus, Epithelial cell, 336 h, 50 μM, read-out: inhibition rate compared to the EGF treatment group", "value": 66.7, "unit": "%"},
      {"measurement": "inhibition rate compared to the TPA treatment group", "setting": "[3]; 50 μM", "value": 76.2, "unit": "%"},
      {"measurement": "inhibition at 50 µM", "setting": "[3]; Mus musculus, Epithelial cell, 336 h, 50 μM, read-out: inhibition rate compared to the TPA treatment group", "value": 74.2, "unit": "%"},
      {"measurement": "concentration at which toxicity begins to show", "setting": "[1]; human, 48 h", "value": "> 50", "unit": "µM"},
      {"measurement": "IC50", "setting": "[4]; Homo sapiens, SK-MEL-5, SKMEL-5, 72 hours, WST-8", "value": 32.1, "unit": "µM"},
      {"measurement": "cancer cell growth inhibition effect compared to kaempferol", "setting": "[4]; SKMEL-5, 72 hours, WST-8", "value": "superior cancer cell growth inhibition effect compared to kaempferol"},
      {"measurement": "cancer cell growth inhibition effect", "setting": "[4]; SKMEL-5, at a concentration that did not exhibit toxicity", "value": 78.5, "unit": "%"},
      {"measurement": "number of tumors", "setting": "[5]; [6]", "value": "decreased"},
      {"measurement": "tumor area", "setting": "[5]; [6]", "value": "decreased"},
      {"measurement": "tumor incidence", "setting": "[5]; [6]", "value": "decreased"},
      {"measurement": "effect in inhibiting skin cancer formation compared to 5-FU", "setting": "[5]; 5-FU 0.1 μmole as positive control", "value": "superior effect in inhibiting skin cancer formation compared to 5-FU"}
    ]},
    {"compound": "O=c1c(O)c(-c2ccc(O)cc2)oc2cc(O)cc(O)c12", "note": "[kaempferol]", "values": [
      {"measurement": "concentration at which toxicity begins to show", "setting": "[1]; NHDF, 48 hours, WST-8", "value": 40, "unit": "µM"}
    ]},
    {"compound": "COc1cc(O)c2c(=O)c(OC3OC(CO)C(O)C(O)C3O)c(-c3ccc(O)c(O)c3)oc2c1", "note": "(stereo not drawn) [rhamnetin-3-O-glucoside]", "values": [
      {"measurement": "inhibition rate compared to the EGF treatment group", "setting": "[2]; test concentration not given", "value": 92.9, "unit": "%"},
      {"measurement": "inhibition rate compared to the TPA treatment group", "setting": "[3]; test concentration not given", "value": "76.2% and 74.2%"}
    ]}
  ]
}
